Molecules are shown by their SMILES.

Usually IC50 stands for the concentration at which inhibition is half-maximal. Read a high IC50 as lower potency.

The nature of this assay: Inhibition of angiotensin I converting enzyme in silico.

As to `O=C(O)Cn1c(=O)n2n(c1=O)C(C(=O)O)C=CC2` (stereo unspecified), half-maximal inhibition (IC50) required 0.00316 µM.

Consider `O=C(O)[C@@H]1C=CCn2c(=O)n(CS)c(=O)n21`, for which the IC50 is 2.51 µM.

As for `CC1(CS)C(=O)N2CCCC(C(=O)O)N2C1=O` (stereo unspecified), the concentration for half-maximal inhibition (IC50) was 3.16 µM.

The molecule `CC(NP(=O)(O)O)C(=O)C1CCCC1C(=O)O` (stereo unspecified) came in with an IC50 of 0.00501 µM.

Regarding `C[C@H](NC(CCC(=O)Nc1ccc(I)cc1)C(=O)O)C(=O)N1CCC[C@H]1C(=O)O` (stereo partly specified), the concentration for half-maximal inhibition (IC50) is 0.000794 µM.

`O=C(O)[C@@H]1CCCN1C(=O)[C@@H]1CC[C@H]1S` showed an IC50 of 0.158 µM. Against the preceding molecule, the IC50 is about 200-fold higher.

As to `CC(NC(=O)C1CCCCC1S)C(=O)N1CCCC1C(=O)O` (stereo unspecified), the 50% inhibitory concentration (IC50) is 0.01 µM.

`O=C(O)CCc1cc(O)c2n(c1=O)[C@H](C(=O)O)CC2` yielded an IC50 of 0.0316 µM.

Consider `O=C(S[C@@H]1CCC[C@@H]1C(=O)N1CCC[C@H]1C(=O)O)c1ccccc1`, for which 0.0631 µM corresponded to half-maximal inhibition (IC50).

For `O=C(O)[C@@H]1CC2(CN1C(=O)CP(=O)(O)CCCCc1ccccc1)SCCS2`, the half-inhibitory concentration (IC50) was 0.0126 µM. This IC50 is about 5-fold lower than that of the molecule before.

The molecule `CC(NP(=O)(O)CCc1ccccc1)C(=O)N1CCCC1C(=O)O` (stereo unspecified) [1-hydroxy-1-phenylethyl-phosphinoylamino]-propionyl-pyrrolidine-2-carboxylic acid] gave a 50% inhibitory concentration (IC50) of 0.0251 µM.

The values above are taken from BindingDB's records for doi:10.1021/jm970211n (University of Michigan, 1997).
